SMILES strings stand for the structures. Values joined by “and” are separate entries in the source; they are usually repeats but may differ in a detail not shown here. Identical values can stand only once.

The experiment has as its system Swiss mice, Sarcoma 180 sc, mean tumor weight T/C. Description: NCI In Vivo Anticancer Drug Screen. Data for tumor model Sarcoma 180 (subcutaneous) in Swiss mice. As to conditions: endpoint: mean tumor weight, higher = larger tumour. Put shortly: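 Readout is the ratio of treated-group measurement to vehicle-control measurement (T/C), based on survival or tumor size in mice carrying transplanted tumors.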

Turning to `OCC(F)(F)C(F)(F)C(F)(F)F`, the T/C was 56 % of control (dose: 222.0 mg/kg/injection, schedule: Q01DX007 (ip), vehicle: other); 74 % of control (dose: 250.0 mg/kg/injection, schedule: Q01DX007 (ip), vehicle: saline); 82 % of control (dose: 333.0 mg/kg/injection, schedule: Q01DX007 (ip), vehicle: other); 56 % of control (dose: 500.0 mg/kg/injection, schedule: Q01DX007 (ip), vehicle: other); 90 % of control (dose: 750.0 mg/kg/injection, schedule: Q01DX007 (ip), vehicle: other).
In the case of `O=C(O)Cc1ccc(C2CCCCC2)cc1`, the T/C runs as follows: (dose: 37.5 mg/kg/injection, schedule: Q01DX007 (ip), vehicle: carboxymethylcellulose (CMC)) 120 % of control; (dose: 75.0 mg/kg/injection, schedule: Q01DX007 (ip), vehicle: carboxymethylcellulose (CMC)) 115 % of control; (dose: 150.0 mg/kg/injection, schedule: Q01DX007 (ip), vehicle: carboxymethylcellulose (CMC)) 80 % of control; (dose: 300.0 mg/kg/injection, schedule: Q01DX007 (ip), vehicle: carboxymethylcellulose (CMC)) 70 % of control and 75 % of control; (dose: 600.0 mg/kg/injection, schedule: Q01DX007 (ip), vehicle: carboxymethylcellulose (CMC)) 67 % of control.
Take `C[C@]12CCC(=O)C=C1CC[C@H]1[C@@H]3CC[C@](O)(C(=O)CF)[C@@]3(C)C[C@H](O)[C@@]12F`: the T/C is 54 % of control (dose: 20.5 mg/kg/injection, schedule: Q#A X014 (sc), vehicle: steriod suspending solution); 62 % of control (dose: 31.0 mg/kg/injection, schedule: Q#A X014 (sc), vehicle: steriod suspending solution); 48 % of control (dose: 46.5 mg/kg/injection, schedule: Q#A X014 (sc), vehicle: steriod suspending solution).
Regarding `CN1CCC=C(C(=O)O)C1`, the T/C runs as follows: (dose: 10.0 mg/kg/injection, schedule: Q01DX007 (ip), vehicle: water) 78 % of control; (dose: 50.0 mg/kg/injection, schedule: Q01DX007 (ip), vehicle: water) 75 % of control; (dose: 100.0 mg/kg/injection, schedule: Q01DX007 (ip), vehicle: water) 83 % of control.
With `CC[C@@H](O)C[C@H]1CCC[C@@]2(C[C@@H]3OC(=O)/C=C/[C@@](C)(O)[C@@H](O)[C@H](C)[C@@H](O)[C@H](OC4CCC(N(C)C)C(C)O4)[C@@H](O)[C@](C)(O)CCCCC/C=C/[C@@H]4CC(C)(C)O[C@@]4(O)C[C@H](O2)[C@H]3C)O1` (some centres undefined), the T/C is 95 % of control (dose: 0.15 mg/kg/injection, schedule: Q01DX007 (sc), vehicle: steriod suspending solution); 113 % of control (dose: 0.23 mg/kg/injection, schedule: Q01DX007 (sc), vehicle: steriod suspending solution); 118 % of control (dose: 0.34 mg/kg/injection, schedule: Q01DX007 (sc), vehicle: steriod suspending solution).
`CCC1=C(c2cc(Cl)c3ccccc3c2OCC(=O)O)OC(CC)(C(=O)c2cc(Cl)c3ccccc3c2OCC(=O)O)CC1` (centres undefined): the T/C is 110 % of control (dose: 2.0 mg/kg/injection, schedule: Q01DX007 (ip), vehicle: other); 120 % of control (dose: 4.0 mg/kg/injection, schedule: Q01DX007 (ip), vehicle: other); 90 % of control (dose: 8.0 mg/kg/injection, schedule: Q01DX007 (ip), vehicle: other); 112 % of control (dose: 16.0 mg/kg/injection, schedule: Q01DX007 (ip), vehicle: other); 95 % of control (dose: 75.0 mg/kg/injection, schedule: Q01DX007 (ip), vehicle: other); 49 % of control (dose: 111.0 mg/kg/injection, schedule: Q01DX007 (ip), vehicle: other).
For `CO[C@H]1C(=O)C[C@H]2[C@@H]3CC=C4C[C@@H](O)CC[C@]4(C)[C@H]3CC[C@]12C`, the T/C is 92 % of control (dose: 2.5 mg/kg/injection, schedule: Q01DX007 (sc), vehicle: steriod suspending solution); 101 % of control (dose: 5.0 mg/kg/injection, schedule: Q01DX007 (sc), vehicle: steriod suspending solution); 89 % of control (dose: 10.0 mg/kg/injection, schedule: Q01DX007 (sc), vehicle: steriod suspending solution); 94 % of control (dose: 20.0 mg/kg/injection, schedule: Q01DX007 (sc), vehicle: steriod suspending solution); 93 % of control and 107 % of control (dose: 40.0 mg/kg/injection, schedule: Q01DX007 (sc), vehicle: steriod suspending solution); 116 % of control and 117 % of control (dose: 80.0 mg/kg/injection, schedule: Q01DX007 (sc), vehicle: steriod suspending solution).
As for `O=C(Nc1ccc(C2=NCCN2)cc1)c1cccc(C(=O)Nc2ccc(C3=NCCN3)cc2)c1`, the T/C reads like this: (dose: 1.2 mg/kg/injection, schedule: Q01DX007 (ip), vehicle: carboxymethylcellulose (CMC)) 167 % of control; (dose: 4.7 mg/kg/injection, schedule: Q01DX007 (ip), vehicle: carboxymethylcellulose (CMC)) 109 % of control; (dose: 9.4 mg/kg/injection, schedule: Q01DX007 (ip), vehicle: carboxymethylcellulose (CMC)) 117 % of control; (dose: 60.0 mg/kg/injection, schedule: Q01DX007 (ip), vehicle: carboxymethylcellulose (CMC)) 163 % of control; (dose: 120.0 mg/kg/injection, schedule: Q01DX007 (ip), vehicle: carboxymethylcellulose (CMC)) 98 % of control; (dose: 240.0 mg/kg/injection, schedule: Q01DX007 (ip), vehicle: carboxymethylcellulose (CMC)) 79 % of control.
On to `CN(C)[C@@H]1C(=O)C(C(=O)NCNc2nc(=S)c3[nH]cnc3[nH]2)=C(O)[C@@]2(O)C(=O)C3=C(O)c4c(O)cccc4[C@@](C)(O)[C@H]3C[C@@H]12`, for which the T/C (dose: 25.0 mg/kg/injection, schedule: Q01DX007 (ip), vehicle: carboxymethylcellulose (CMC)) was 26 % of control and the T/C (dose: 50.0 mg/kg/injection, schedule: Q01DX007 (ip), vehicle: carboxymethylcellulose (CMC)) is 15 % of control.
In the case of `CN(C)c1ccc(C(C#N)C(C#N)c2ccccc2)cc1` (centres undefined), the T/C is 69 % of control and 84 % of control (dose: 8.85 mg/kg/injection, schedule: Q#A X014 (ip), vehicle: methylcellulose (MC)); 4 % of control (dose: 26.6 mg/kg/injection, schedule: Q#A X014 (ip), vehicle: methylcellulose (MC)); 56 % of control (dose: 40.0 mg/kg/injection, schedule: Q#A X014 (ip), vehicle: methylcellulose (MC)).
As for `CC1=C2C(=C[C@@](C)(CO)[C@@H]2O)C(=O)[C@](C)(O)C12CC2`, the T/C by setting is: (dose: 0.8 mg/kg/injection, schedule: Q01DX007 (ip), vehicle: saline) 67 % of control and 78 % of control; (dose: 1.6 mg/kg/injection, schedule: Q01DX007 (ip), vehicle: saline) 45 % of control.

As a reminder, the T/C is the ratio of treated to control.

For the origin of these results see PubChem BioAssay AID342 (DTP/NCI, 2004).
